Converted amounts (≈) assume the structure as drawn. Read-outs that look alike come from different tables or passages of the source. Numbered stars: 1 amine (or outer) side, 2 acyl side, 3 side chain; on linkers, the order of the positions; unused ones are H or OH. Bridge positions count the residues as written; N and C are the ends. Square brackets hold non-standard residues; d marks the D form. Peptide text beside a SMILES is read from it. * marks the point of attachment. Piperazine(2S-CO,4-Me) = CN1CCN[C@H](C(=O)O)C1; Morpholine(3S-CO) = O=C(O)[C@@H]1COCCN1; Phe(3-Me) = Cc1cccc(C[C@H](N)C(=O)O)c1; NH(4-Cl-2-F-phenyl) = Fc1cc(Cl)ccc1N*; Pro(4R-Me) = C[C@H]1CN[C@H](C(=O)O)C1; X1 = O=C([C@@H]1CSCCN1[*:1])[*:2]; Hyp = O=C(O)[C@@H]1C[C@@H](O)CN1; NH(4-Et-phenyl) = CCc1ccc(N*)cc1; NH(4-Me-phenyl) = Cc1ccc(N*)cc1; aThr = C[C@H](O)[C@H](N)C(=O)O; CO = O=C([*:1])[*:2]
Legend:
S. pneumoniae = test: Minimal inhibitory concentration, microbroth dilution; format: cell-based; settings: Streptococcus pneumoniae; MIC; read-out: Minimal Inhibitory Concentrations (μM) S. pneumoniae
Method in brief: (§1)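 Growth inhibition was scored visually after overnight aerobic culture at 37 °C in CLSI-style microdilution plates. Inocula contained about 10^5 cfu/mL, and compound concentrations descended in twofold steps from 200 μM.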

S. pyogenes = test: as above; format: cell-based; settings: Streptococcus pyogenes; MIC; read-out: Minimal Inhibitory Concentrations (μM) S. pyogenes
Method in brief: as §1

[1] = Microsomal metabolic stability; format: in vitro ADME, human
Procedure: Compounds were initially prepared by dissolving them into DMSO at a final concentration of 10 mM. NADPH regenerating solutions A and B and mouse liver microsomes (CD-1) were obtained from BD Gentest (Woburn, Mass.). Ninety-six well deep well plates were obtained from MidWest Scientific Inc (Valley Park, Mo.).
Sample preparation for microsomal stability was modified from methods of Di, L., et al., Int J Pharm. 2005 Jun. 13; 297(1-2):110-9. A set of incubation times of 0, 15, 30, 60, 120, and 240 minutes were used. Mouse liver microsomal solutions were prepared by adding 58 μL of concentrated human or mouse liver microsomes (20 mg/mL protein concentration) to 1.756 mL of 0.1 M potassium phosphate buffer (pH 7.4) and 5 μL of 0.5 M EDTA to make a 0.6381 mg/mL (protein) microsomal solution. NADPH regenerating agent contained 113 μL of NADPH A, 23 μL of NADPH B, and 315 μL of 0.1 M potassium phosphate buffer (pH 7.4). The diluted test compound solutions (2 μL) were each added directly to a 1.79 mL of liver microsomal solution. This solution was mixed and 90 μL was transferred to 6 time points plates (each in triplicate wells). For the time 0 plate, 225 μL of cold acetonitrile with internal standard ([…] warfarin) was added to each well, followed by addition of NADPH regenerating agent (22.5 μL) and no incubation. For other five time points' plate, NADPH regenerating agent (22.5 μL) was added to each well to initiate the reaction. The plates were incubated at 37° C. for the required time, followed by quenching of the reaction by adding 225 μL of cold acetonitrile with internal standard (4 μg/ml warfarin). All of the plates were sealed and mixed well at 600 rpm for 10 minutes followed by centrifugation at 4000 rpm for 20 minutes. The supernatants (120 μL) were transferred to analytical plates for analysis by LCMS. LCMS conditions were described in the materials and instrumentation section above. The metabolic stability is evaluated via the half-life from least-squares fit of the multiple time points based on first-order kinetics.

[2] = Plasma protein binding, rapid equilibrium dialysis; format: in vitro ADME, human; settings: 10 μM
Procedure: This assay determines plasma protein binding of a drug/compound and free drug concentration in plasma using rapid equilibrium dialysis, which allow the aqueous component of plasma containing the free drug/compound through a dialysis membrane (MWCO˜8,000).
Solutions were prepared at 10 mM in DMSO. Dulbecco's phosphate buffered saline (DPBS; pH 7.4) was obtained from Invitrogen (Carlsbad, Calif.). Single-Use RED (rapid equilibrium dialysis) device was obtained from Thermo scientific (Rockford, Ill.). Human plasma was obtained from Innovative Research INC (Novi, Michigan, Ill).
Sample preparation for plasma protein binding was modified from Waters' method. (Waters et al. (2008) J. Pharm. Sci. 97(10): 4586-95). The Teflon base plate with the RED inserts (MWCO 8 K) were allowed to use without any pre-condition the membrane inserts. Human plasma was thawed and centrifuged at 1000 rpm for 2 min to remove any particulates. Each compound was prepared at 10 μM in human plasma. This was done by adding 1 μL, of drug solution (10 mM in DMSO) to 1000 μL, of human plasma (0.1% DMSO). Spiked plasma solutions (300 μL) were placed into the sample chamber (indicated by the red ring) and 500 μL, of DPBS into the adjacent chamber. The plate was sealed and incubated at 37° C. on an orbital shaker (100 rpm) for 4 hours. After incubation, the seal was removed from the RED plate and the volume of the insert confirmed—little to no volume change occurred. Aliquots (50 μL) were removed from each side of the insert and dispensed into a 96-well deep plate. An equal volume of blank plasma or DPBS was added to the required wells to create analytically identical sample matrices (matrix matching). To each sample 200 μL, of ACN containing 4 μg/mL warfarin IS was added. All of the plates were sealed and mixed well at 600 rpm for 10 min and were centrifuged at 4000 rpm for 20 min. The supernatants (120 μL) were transferred to analytical plates for analysis by LCMS. Conditions for Waters ACQUITY-UPLC-MS-UV system were described separately. The test compound concentrations were quantified in both buffer and plasma chambers via peak areas relative to the internal standard. The percentage of the test compound bound to plasma was calculated on following equations: % Free=(Concentration buffer chamber/concentration plasma chamber)×100% and % Bound=100%-% Free.

Plasma pharmacokinetics = format: in vivo, male BALB/c mice; settings: for Vd: read-out: Vss
[3] = male, BALB/c, mouse, in vivo, iv
[4] = male, BALB/c, mouse, in vivo, iv, 10 mg/kg, Route i.v.

Compound | MIC (S. pneumoniae) [µM] | MIC (S. pyogenes) [µM] | Human ([1]; human, pH 7.4) | Human ([2]; human, 4 h, pH 7.4) [%] | AUC(0-inf) (Plasma pharmacokinetics; [3]) [ng·h/mL] | AUC(0-t) (Plasma pharmacokinetics; [3]) [ng·h/mL] | C^0 (Plasma pharmacokinetics; [3]) [ng/mL] | clearance (Plasma pharmacokinetics; [3]) [mL/min/kg] | half-life (Plasma pharmacokinetics; [3]) [h] | Vd (Plasma pharmacokinetics; [4]) [L/kg] | Human ([1]; microsomal metabolic stability half-life, human liver microsomes) | Human ([2]; plasma binding, % Bound, human plasma) [%] | C^0 (Plasma pharmacokinetics; Route i.v.) [ng/mL] | AUC(0-inf) (Plasma pharmacokinetics; male, BALB/c, mouse, in vivo, iv, 10 mg/kg, Route i.v., read-out: AUCinf) [ng·h/mL] | AUC(0-t) (Plasma pharmacokinetics; male, BALB/c, mouse, in vivo, iv, 10 mg/kg, Route i.v., read-out: AUClast) [ng·h/mL] | clearance (Plasma pharmacokinetics; male, BALB/c, mouse, in vivo, iv, 10 mg/kg, Route i.v., read-out: CL) [mL/min/kg] | half-life (Plasma pharmacokinetics; male, BALB/c, mouse, in vivo, iv, 10 mg/kg, Route i.v., read-out: T1/2 (converted)) [h]
Cc1cccc(C[C@H](NC(=O)Nc2ccc(Cl)cc2F)C(=O)N[C@H]2COC(=O)[C@@H]3C[C@@H](C)CN3C(=O)[C@H](C)NC(=O)[C@@H]3CN(C)CCN3C(=O)[C@@H]3CCCN3C2=O)c1 [Compound 13, (S)-2-(3-(4-CHLORO-2-FLUOROPHENYL)UREIDO)-3-(M-TOLYL)-N-((6AS,12S,15AS,17R,21S,23AS)-2,17,21-TRIMETHYL-6,11,15,20,23-PENTAOXOOCTADECAHYDRO-2H,6H,11H,15H-PYRAZINO[2,1-I]DIPYRROLO[2,1-C:2′,1′-L][1]OXA[4,7,10,13]TETRAAZACYCLOHEXADECIN-12-YL)PROPANAMIDE] ({NH(4-Cl-2-F-phenyl)-CO}-[Phe(3-Me)]SP[Piperazine(2S-CO,4-Me)]A[Pro(4R-Me)]; ester 2-C) | 0.156 (≈ 0.129 µg/mL) | 0.313 (≈ 0.258 µg/mL) | 0.38 ± 0.04 h | 97.0 ± 0.6 | – | – | – | – | – | – | – | – | – | – | – | – | –
Cc1cccc(C[C@H](NC(=O)Nc2ccc3c(c2)OCO3)C(=O)N[C@H]2COC(=O)[C@@H]3C[C@@H](C)CN3C(=O)[C@H](C)NC(=O)[C@@H]3CCCCN3C(=O)[C@@H]3CCCN3C2=O)c1 [Compound 23, (S)-2-(3-(BENZO[D][1,3]DIOXOL-5-YL)UREIDO)-N-((2R,6S,8AS,14AS,20S,23AS)-2,6-DIMETHYL-5,8,14,19,23-PENTAOXOOCTADECAHYDRO-1H,5H,14H,19H-PYRIDO[2,1-I]DIPYRROLO[2,1-C:2′,1′-L][1]OXA[4,7,10,13]TETRAAZACYCLOHEXADECIN-20-YL)-3-(M-TOLYL)PROPANAMIDE] | – | – | 30.2 ± 11.7 h | 97.1 ± 0.2 | 12000 | 11700 | 25009.24 | 13.8 | 4.57 | 2.83 | – | – | – | – | – | – | –
CCc1ccc(NC(=O)N[C@@H](Cc2cccc(C)c2)C(=O)N[C@@H]2C(=O)N3C[C@H](O)C[C@H]3C(=O)N3CCOC[C@H]3C(=O)N[C@@H](C)C(=O)N3C[C@H](C)C[C@H]3C(=O)O[C@H]2C)cc1 [Compound 24, (S)-2-(3-(4-ETHYLPHENYL)UREIDO)-N-((6AS,8R,12S,13S,15AS,17R,21S,23AS)-8-HYDROXY-13,17,21-TRIMETHYL-6,11,15,20,23-PENTAOXOOCTADECAHYDRO-6H,11H,15H-[1,4]OXAZINO[3,4-I]DIPYRROLO[2,1-C:2′,1′-L][1]OXA[4,7,10,13]TETRAAZACYCLOHEXADECIN-12-YL)-3-(M-TOLYL)PROPANAMIDE] ({NH(4-Et-phenyl)-CO}-[Phe(3-Me)][aThr][Hyp][Morpholine(3S-CO)]A[Pro(4R-Me)]; ester 2-C) | – | – | 4.89 ± 0.67 h | 97.7 ± 0.2 | 3870 | 3850 | 27083.47 | 43 | 0.34 | 0.51 | – | – | – | – | – | – | –
Cc1ccc(NC(=O)N[C@@H](Cc2cccc(C)c2)C(=O)N[C@@H]2C(=O)N3C[C@H](O)C[C@H]3C(=O)N3CCN(C)C[C@H]3C(=O)N[C@@H](C)C(=O)N3C[C@H](C)C[C@H]3C(=O)O[C@H]2C)cc1 [Compound 30, (S)—N-((6AS,8R,12S,13S,15AS,17R,21S,23AS)-8-HYDROXY-2,13,17,21-TETRAMETHYL-6,11,15,20,23-PENTAOXOOCTADECAHYDRO-2H,6H,11H,15H-PYRAZINO[2,1-I]DIPYRROLO[2,1-C:2′,1′-L][1]OXA[4,7,10,13]TETRAAZACYCLOHEXADECIN-12-YL)-3-(M-TOLYL)-2-(3-(P-TOLYL)UREIDO)PROPANAMIDE] ({NH(4-Me-phenyl)-CO}-[Phe(3-Me)][aThr][Hyp][Piperazine(2S-CO,4-Me)]A[Pro(4R-Me)]; ester 2-C) | – | – | – | – | – | – | – | – | – | 1.74 | 1.30 ± .305 h | 94.8 ± 4.8 | 12355.62 | 2650 | 2620 | 63 | 2.08
Cc1cccc(C[C@H](NC(=O)Nc2ccc(Cl)cc2F)C(=O)N[C@@H]2C(=O)N3C[C@H](O)C[C@H]3C(=O)N3CCN(C)C[C@H]3C(=O)N[C@@H](C)C(=O)N3C[C@H](C)C[C@H]3C(=O)O[C@H]2C)c1 [Compound 31, (S)-2-(3-(4-CHLORO-2-FLUOROPHENYL)UREIDO)-N-((6AS,8R,12S,13S,15AS,17R,21S,23AS)-8-HYDROXY-2,13,17,21-TETRAMETHYL-6,11,15,20,23-PENTAOXOOCTADECAHYDRO-2H,6H,11H,15H-PYRAZINO[2,1-I]DIPYRROLO[2,1-C:2′,1′-L][1]OXA[4,7,10,13]TETRAAZACYCLOHEXADECIN-12-YL)-3-(M-TOLYL)PROPANAMIDE] ({NH(4-Cl-2-F-phenyl)-CO}-[Phe(3-Me)][aThr][Hyp][Piperazine(2S-CO,4-Me)]A[Pro(4R-Me)]; ester 2-C) | – | – | 3.87 ± .875 h | 97.9 ± 7.9 | 5260 | 5250 | 30582.19 | 31.7 | 1.55 | 0.63 | – | – | – | – | – | – | –
Cc1cccc(C[C@H](NC(=O)Nc2ccc(Cl)cc2F)C(=O)N[C@@H]2C(=O)N3CCC[C@H]3C(=O)N3CCSC[C@H]3C(=O)N[C@@H](C)C(=O)N3C[C@H](C)C[C@H]3C(=O)O[C@H]2C)c1 [Compound 38, (S)-2-(3-(4-CHLORO-2-FLUOROPHENYL)UREIDO)-3-(M-TOLYL)-N-((6AS,12S,13S,15AS,17R,21S,23AR)-13,17,21-TRIMETHYL-6,11,15,20,23-PENTAOXOOCTADECAHYDRO-6H,11H,15H-DIPYRROLO[2,1-C:2′,1′-L][1,4]THIAZINO[3,4-I][1]OXA[4,7,10,13]TETRAAZACYCLOHEXADECIN-12-YL)PROPANAMIDE] ({NH(4-Cl-2-F-phenyl)-CO}-[Phe(3-Me)][aThr]P[X1]A[Pro(4R-Me)]; ester 2-C) | – | – | 1.00 ± .003 h | 99.5 ± 9.5 | 13300 | 13200 | 16999.46 | 12.6 | 3.11 | 1.77 | – | – | – | – | – | – | –
